Where “and” joins values, the source holds several entries; their conditions need not be identical. Equal values may be shown once.
Tests used:
[1] = Physical property (vapor pressure, odor) of alphacarboxylic acids and peroxyalphacarboxylic acids; type: physicochemical
[2] = test system: Salmonella ser. Heidelberg, Newport and Braenderup (modified to be resistant to 50 μg/mL nalidixic acid); assay: Antimicrobial efficacy on chicken carcass, 15 second dip; type: cell-based; details: for Avg Log10 Survivors / CFU/Surface (CFU/ml × 50) / Log10 Reduction / Log10 Survivors: 15 second dip, drain time 30 minutes, room temperature
Description: Antimicrobial Efficacy of Peroxylactic Acid. The antimicrobial efficacy of peroxylactic acid generated from the solid peroxyalphahydroxycarboxylic acid forming composition of Table 4 was evaluated on chicken carcass against Salmonella in comparison to peroxyacetic acid (PAA). The molecular weight of PLA is 106, and PAA 76, therefore the molar equivalent base of the peracids is 500 ppm PLA equals to 359 ppm PAA.

[3] = cited from earlier work
[4] = test system: Listeria monocytogenes ATCC 49594; details: known; cited from earlier work
[5] = test system: Staphylococcus aureus ATCC 6538; assay: US EPA food contact suspension test (AOAC 960.09); type: cell-based; details: 30 seconds, 500 ppm synthetic hard water, ambient (18-20° C.)
Description: (§1) Antimicrobial Efficacy of Peroxylactic Acid. The antimicrobial efficacy of peroxylactic acid generated from the solid peroxyalphahydroxycarboxylic acid forming composition of Table 4 was evaluated following the US EPA food contact suspension test protocol (AOAC 960.09) against Staphylococcus aureus and Escherichia coli according to the conditions set forth in Table 7.

[6] = test system: Escherichia coli ATCC 11229; assay: US EPA food contact suspension test (AOAC 960.09); type: cell-based; details: 30 seconds, 500 ppm synthetic hard water, ambient (18-20° C.)
Description: as §1

[7] = PLA generation kinetics and pH from solid pellet of Table 4 dissolved in DI water; type: physicochemical
Description: Following the successful perhydrolysis reactions of the lactide and glycolide esters, the solid composition shown in Table 4 using a lactide precursor was used to generate peroxylactic acid according to the same reaction scheme in FIG. 1. The lactide precursor was formulated into a solid pellet with citric acid and sodium percarbonate and the solid peroxyalphahydroxycarboxylic acid forming composition was added to water for the perhydrolysis reaction to generate peroxylactic acid (PLA). Beneficially, the citric acid acts as both a buffer and a dispersant or disintegrating reagent to provide effervescence to dissolve the solid composition more quickly into water and initiate the reaction of forming PLA. The reaction kinetics were evaluated by dissolving approximately 2.5 gram pellet as shown in Table 4 in 500 mL DI water to measure PLA generation and pH over time.
The PLA generation were measured on two occasions. […] The initial testing point of 10 minutes provides time for the pellet to dissolve in the water so that PLA generation can begin.
The stability of the tablets is also quantifiable by the chemistry of the reagents as they are capable of self-reacting. As a result, tablet (or solid) stability can also be assessed by the ability or capacity of the tablet to generate PLA after storage as another quantifiable mechanism to confirm stability. This is shown in Example 1, Table 6 compared to Table 5 is a direct comparison of PLA generation profiles of the tablets after 9 months of storage. […] In some embodiments it is preferred that at least about 50% or preferably at least about 80% of the PLA (or peroxyalphahydroxycarboxylic acid) generation is maintained.

[8] = test system: Salmonella, E. coli, Campylobacter and Listeria; assay: US EPA food contact suspension test (AOAC 960.09), FIG. 3; type: cell-based; details: as low as 25 ppm, 30 seconds
Description: (§2) Additional Antimicrobial Efficacy of Peroxylactic Acid. Additional antimicrobial efficacy of generated peroxylactic acid was evaluated following the US EPA food contact suspension test protocol (AOAC 960.09) against Salmonella, E. coli, Campylobacter and Listeria according to the conditions set forth in Table 12.

[9] = test system: Listeria monocytogenes ATCC 49594; assay: as above; type: cell-based; details: 100 ppm, 30 seconds
Description: as §2

[10] = approx. 2.5 gram pellet of Table 4 in 500 mL DI water, first PLA generation, 10 min
[11] = approx. 2.5 gram pellet of Table 4 in 500 mL DI water, first PLA generation, 30 min
[12] = approx. 2.5 gram pellet of Table 4 in 500 mL DI water, first PLA generation, 60 min
[13] = approx. 2.5 gram pellet of Table 4 in 500 mL DI water, first PLA generation, 90 min
[14] = approx. 2.5 gram pellet of Table 4 in 500 mL DI water, first PLA generation, 120 min
[15] = approx. 2.5 gram pellet of Table 4 in 500 mL DI water, first PLA generation, 150 min
[16] = approx. 2.5 gram pellet of Table 4 in 500 mL DI water, first PLA generation, 180 min
[17] = approx. 2.5 gram pellet of Table 4 in 500 mL DI water, first PLA generation, 210 min
[18] = approx. 2.5 gram pellet of Table 4 in 500 mL DI water, first PLA generation, 240 min
[19] = same batch of tablets stored under ambient conditions for 9 months, 20 min
[20] = same batch of tablets stored under ambient conditions for 9 months, 30 min
[21] = same batch of tablets stored under ambient conditions for 9 months, 40 min
[22] = same batch of tablets stored under ambient conditions for 9 months, 50 min
[23] = same batch of tablets stored under ambient conditions for 9 months, 60 min
[24] = same batch of tablets stored under ambient conditions for 9 months, 120 min
[25] = same batch of tablets stored under ambient conditions for 9 months, 240 min
[26] = same batch of tablets stored under ambient conditions for 9 months, 300 min
[27] = same batch of tablets stored under ambient conditions for 9 months, 360 min

## CC(=O)OO [PAA, peroxyacetic acid, reference compound]
[1]
  Odor: Sharp pungent
[2]; 500 ppm
  Avg Log10 Survivors: 6.54 Log10
  CFU/Surface (CFU/ml × 50): 4.35E+06 CFU/Surface and 2.35E+06 CFU/Surface and 3.95E+06 CFU/Surface
  Log10 Reduction: 1.09 Log10
  Log10 Survivors: 6.64 Log10 and 6.37 Log10 and 6.60 Log10
[3]
  Vapor Pressure (20° C.): 2.06 KPa
[4]
  Concentration required for greater than 7 log reduction against Listeria: at least 180 ppm

## CC(=O)O [Acetic Acid]
[1]
  Odor: Sour
[3]
  Vapor Pressure (20° C.): 1.56 KPa

## CC(O)C(=O)O (stereo not shown) [Lactic Acid]
[1]
  Odor: No irritative odor
[3]
  Vapor Pressure (20° C.): 0.01 KPa

## O=C(O)CO [Glycolic acid]
[1]
  Odor: Odorless
[3]
  Vapor Pressure (20° C.): 0.003 KPa

## CC(O)C(=O)OO (stereo not shown) [PLA, peroxylactic acid]
[1]
  Odor: Odorless
[5]; 50 ppm PLA
  Average Log10 Growth: >6.48 Log10
  CFU/ml: >3.00E+06 CFU/ml
  Log10 Growth: >6.48 Log10
  Log10 Reduction: <1.32 Log10
[5]; 100 ppm PLA
  Average Log10 Growth: 5.22 Log10
  CFU/ml: 2.20E+05 CFU/ml and 1.24E+05 CFU/ml
  Log10 Growth: 5.34 Log10 and 5.09 Log10
  Log10 Reduction: 2.58 Log10
[5]; 150 ppm PLA
  Average Log10 Growth: 2.82 Log10
  CFU/ml: 9.20E+02 CFU/ml and 4.80E+02 CFU/ml
  Log10 Growth: 2.96 Log10 and 2.68 Log10
  Log10 Reduction: 4.98 Log10
[5]; 200 ppm PLA
  Average Log10 Growth: <1.00 Log10
  CFU/ml: <1.00E+01 CFU/ml
  Log10 Growth: <1.00 Log10
  Log10 Reduction: >6.80 Log10
[6]; 25 ppm PLA
  Average Log10 Growth: 3.25 Log10
  CFU/ml: 1.49E+03 CFU/ml and 2.10E+03 CFU/ml
  Log10 Growth: 3.17 Log10 and 3.32 Log10
  Log10 Reduction: 4.64 Log10
[6]; 50 ppm PLA
  Average Log10 Growth: <1.00 Log10
  CFU/ml: <1.00E+01 CFU/ml
  Log10 Growth: <1.00 Log10
  Log10 Reduction: >6.89 Log10
[6]; 100 ppm PLA
  Average Log10 Growth: <1.00 Log10
  CFU/ml: <1.00E+01 CFU/ml
  Log10 Growth: <1.00 Log10
  Log10 Reduction: >6.89 Log10
[7]; [10]
  PLA (ppm): 130 ppm
  pH: 6.06
[7]; [11]
  PLA (ppm): 222 ppm
  pH: 5.95
[7]; [12]
  PLA (ppm): 236 ppm
  pH: 5.64
[7]; [13]
  PLA (ppm): 217 ppm
  pH: 5.41
[7]; [14]
  PLA (ppm): 202 ppm
  pH: 5.23
[7]; [15]
  PLA (ppm): 188 ppm
  pH: 5.11
[7]; [16]
  PLA (ppm): 170 ppm
  pH: 5.01
[7]; [17]
  PLA (ppm): 152 ppm
  pH: 4.93
[7]; [18]
  PLA (ppm): 146 ppm
  pH: 4.87
[7]; same batch of tablets stored under ambient conditions for 9 months, 10 min
  PLA (ppm): 122 ppm
[7]; [19]
  PLA (ppm): 150 ppm
  pH: 5.73
[7]; [20]
  PLA (ppm): 170 ppm
  pH: 5.69
[7]; [21]
  PLA (ppm): 198 ppm
  pH: 5.62
[7]; [22]
  PLA (ppm): 198 ppm
  pH: 5.58
[7]; [23]
  PLA (ppm): 200 ppm
  pH: 5.49
[7]; [24]
  PLA (ppm): 179 ppm
  pH: 5.25
[7]; same batch of tablets stored under ambient conditions for 9 months, 180 min
  PLA (ppm): 160 ppm
[7]; [25]
  PLA (ppm): 129 ppm
  pH: 4.82
[7]; [26]
  PLA (ppm): 102 ppm
  pH: 4.74
[7]; [27]
  PLA (ppm): 85 ppm
  pH: 4.68
[8]
  Efficacy against various microbes: provides efficacy at low concentration doses
[9]
  log reduction against Listeria: greater than 7 log
[2]; 500 ppm
  Avg Log10 Survivors: 6.55 Log10
  CFU/Surface (CFU/ml × 50): 2.90E+06 CFU/Surface and 5.45E+06 CFU/Surface
  Log10 Reduction: 1.08 Log10
  Log10 Survivors: 6.46 Log10 and 6.74 Log10
[2]; 1000 ppm
  Micro efficacy (log reduction) compared to peroxyacetic acid: improved micro efficacy
  Avg Log10 Survivors: 6.16 Log10
  CFU/Surface (CFU/ml × 50): 1.60E+06 CFU/Surface and 1.85E+06 CFU/Surface and 1.05E+06 CFU/Surface
  Log10 Reduction: 1.47 Log10
  Log10 Survivors: 6.20 Log10 and 6.27 Log10 and 6.02 Log10
[2]; 2000 ppm
  Avg Log10 Survivors: 6.54 Log10
  Log10 Reduction: 1.09 Log10
[2]; varying concentrations
  Micro efficacy (log reduction) compared to peroxyacetic acid: at least equivalent micro efficacy

From patent US12258310B2, “Solid peroxyalphahydroxycarboxylic acid generation compositions and the use thereof” (ECOLAB USA INC., priority 2021, dated 2025)
